Results reported in patent US10961215B2, “N-aryl and N-heteroaryl piperidine derivatives as liver X receptor beta agonists, compositions, and their use” (Merck Sharp & Dohme Corp., priority 2016, dated 2021).

Experiments:
[1] = target: T1, GST tagged LXRalpha LBD (ligand binding domain) (Homo sapiens, UniProt Q13133); experiment: LanthaScreen TR-FRET Liver X Receptor Coactivator Assay, LXR alpha-LBD (co-activator recruitment; IP and % Emax relative to T0901317); assay type: biochemical; details: for LXR alpha IP (nM) / EC50: Inflection Point of co-activator recruitment, LXR alpha-LBD, TR-FRET; for Emax / LXR alpha actiivty at max dose (%): efficacy at max dose in relation to reference T0901317, LXR alpha-LBD; for Emax: read-out: LXR alpha actiivty at max dose (%)
T1 construct: purchased Invitrogen pv4655
T1 sequence (Q13133 209-447 limits assumed): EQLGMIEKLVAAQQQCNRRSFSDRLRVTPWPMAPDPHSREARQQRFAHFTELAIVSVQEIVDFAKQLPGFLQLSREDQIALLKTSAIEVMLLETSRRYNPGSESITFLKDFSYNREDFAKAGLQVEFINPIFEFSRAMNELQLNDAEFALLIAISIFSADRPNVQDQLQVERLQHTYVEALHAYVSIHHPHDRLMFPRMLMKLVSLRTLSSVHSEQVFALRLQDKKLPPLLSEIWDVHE
Procedure: (§1) Potency (Inflection Point, IP) and efficacy (Emax) are evaluated via compound-induced co-activator recruitment to glutathione-S-transferase (GST) tagged LXRbeta and LXRalpha LBD (ligand binding domain) proteins in relation to reference dual agonist compound T0901317 (N-(2,2,2-Trifluoroethyl)-N-[4-[2,2,2-trifluoro-1-hydroxy-1-(trifluoromethyl)ethyl]phenyl]benzenesulfonamide) using the LanthaScreen™ TR-FRET Liver X Receptor Coactivator Assays according to manufacturer's instructions (Invitrogen catalog number pv4658.pps and pv4655). While running the LanthaScreen™ TR-FRET Liver X Receptor Coactivator Assay, LXR alpha-LBD or LXR beta-LBD was added to ligand test compounds followed by addition of a mixture of a fluorescein-labelled coactivator peptide and terbium-conjugated anti-GST antibody. After an incubation period at room temperature, TR-FRET (time-resolved fluorescence resonance energy transfer) was measured using a filter-based instrument capable of TR-FRET, e.g. PerkinElmer Envision.

[2] = target: T2, GST tagged LXRbeta LBD (ligand binding domain) (Homo sapiens, UniProt P55055); experiment: LanthaScreen TR-FRET Liver X Receptor Coactivator Assay, LXR beta-LBD (co-activator recruitment; IP and % Emax relative to T0901317); assay type: biochemical; details: for EC50: Inflection Point of co-activator recruitment, LXR beta-LBD, TR-FRET; for Emax / LXR beta actiivty at max dose (%): efficacy at max dose in relation to reference T0901317, LXR beta-LBD; for Emax: read-out: LXR beta actiivty at max dose (%)
T2 construct: purchased Invitrogen pv4658.pps
T2 sequence (P55055 222-460 limits assumed): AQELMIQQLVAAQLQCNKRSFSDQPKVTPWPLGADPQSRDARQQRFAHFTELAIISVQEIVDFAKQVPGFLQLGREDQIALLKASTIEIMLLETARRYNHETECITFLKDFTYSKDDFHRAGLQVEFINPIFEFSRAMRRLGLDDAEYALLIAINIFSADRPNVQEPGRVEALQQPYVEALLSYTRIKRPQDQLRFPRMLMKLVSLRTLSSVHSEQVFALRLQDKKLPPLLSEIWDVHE
Procedure: as §1

| LXR alpha IP (nM) [1] | Emax [1] [%] | EC50 [2] [nM] | Emax [2] [%] | EC50 [1] [nM] | LXR alpha actiivty at max dose (%) [1] [%] | LXR beta actiivty at max dose (%) [2] [%] | Compound |
| --- | --- | --- | --- | --- | --- | --- | --- |
| No IP | 10 | 33 | 43 |  |  |  | CN(C)C(=O)c1ccc(N2CCC([C@H]3C[C@@H](N(C)C(=O)[C@](O)(c4cccc(C5CC5)c4)C(F)(F)F)C3)CC2)nc1Cl [Example 17-2, cis-2-chloro-6-(4-(-3-((R)-2-(3-cyclopropylphenyl)-3,3,3-trifluoro-2-hydroxy-N-methylpropanamido)cyclobutyl)piperidin-1-yl)-N,N-dimethylnicotinamide] |
| No IP | 0 | 583 | 58 |  |  |  | CN(C)C(=O)c1ccc(N2CCC([C@@H]3C[C@H]3CN(C)C(=O)[C@@](O)(c3ccccc3)C(F)(F)F)CC2)nc1Cl [Example 15-16, 2-chloro-N,N-dimethyl-6-(4-((1S,2R)-2-(((S)-3,3,3-trifluoro-2-hydroxy-N-methyl-2-phenylpropanamido)methyl)cyclopropyl)piperidin-1-yl)nicotinamide] |
| No IP | 16 | 259 | 68 |  |  |  | CC(C)[C@](O)(C(=O)N(C)CCCC1CCN(c2ccc(C(=O)N(C)C)c(Cl)n2)CC1)c1ccccc1 [Example 1-2, (R)-2-chloro-6-(4-(3-(2-hydroxy-N,3-dimethyl-2-phenylbutanamido)propyl)piperidin-1-yl)-N,N-dimethylnicotinamide] |
| No IP | 0 | 268 | 48 |  |  |  | CN[C@@](C(=O)N(C)CCCC1CCN(c2ccc(C(=O)N(C)C)c(Cl)n2)CC1)(c1cccc(OC)c1)C(F)(F)F [Example 1-57, (R)-2-chloro-N,N-dimethyl-6-(4-(3-(3,3,3-trifluoro-2-(3-methoxyphenyl)-N-methyl-2-(methylamino)propanamido)propyl)piperidin-1-yl)nicotinamide] |
| No IP | 14 | 437 | 46 |  |  |  | CN(C)C(=O)c1ccc(N2CCC(CCCN(C)C(=O)[C@@](O)(c3cccc(OC4CC4)c3)C(F)(F)F)CC2)nc1Cl [Example 1-35, (S)-2-chloro-6-(4-(3-(2-(3-cyclopropoxyphenyl)-3,3,3-trifluoro-2-hydroxy-N-methylpropanamido)propyl)piperidin-1-yl)-N,N-dimethylnicotinamide] |
|  | 21 | 18 | 47 | 441 |  |  | CN(C)C(=O)c1ccc(N2CCC(C)(CCCN(C)C(=O)[C@](O)(c3ccccc3)C(F)(F)F)CC2)nc1Cl [Example 9-2, (R)-2-chloro-N,N-dimethyl-6-(4-methyl-4-(3-(3,3,3-trifluroo-2-hydroxy-N-methyl-2-phenylpropanamido)propyl)piper-idin-1-yl)nicotinamide] |
|  | 33 | 21 | 76 | 439 |  |  | COc1cccc([C@@](O)(C(=O)N(C)CC[C@H]2CC23CCN(c2ccc(C(=O)N(C)C)c(Cl)c2)CC3)C(F)(F)F)c1 [Example 7-6, 2-chloro-N,N-dimethyl-4-((R)-1-(2-((R)-3,3,3-trifluoro-2-hydroxy-2-(3-methoxyphenyl)-N-methylpropanamido)ethyl)-6-azaspiro[2.5]octan-6-yl)benzamide] |
| No IP | 0 | 17 | 70 |  |  |  | CN(C)C(=O)c1ccc(N2CCC(CCCN(C)C(=O)[C@](O)(c3cccc(C4CC4)c3)C(F)(F)F)CC2)nc1Cl [Example 1-33, (R)-2-chloro-6-(4-(3-(2-(3-cyclopropylphenyl)-3,3,3-trifluoro-2-hydroxy-N-methylpropanamido)propyl)piperidin-1-yl)-N,N-dimethylnicotinamide] |
|  | 26 | 34 | 50 | 472 |  |  | COc1cccc([C@@](O)(C(=O)N(C)CCC2CC3(CCN(c4ccc(C(=O)N(C)C)c(Cl)n4)CC3)C2)C(F)(F)F)c1 [Example 13-1] |
| No IP | 9 | 34 | 66 |  |  |  | CCOc1cccc([C@@](O)(C(=O)N(C)C[C@@H]2C[C@@H]2C2CCN(c3ccc(C(=O)N(C)C)c(Cl)n3)CC2)C(F)(F)F)c1 [Example 15-1, 2-chloro-6-(4-((1R,2R)-2-(((R)-2-(3-ethoxyphenyl)-3,3,3-trifluoro-2-hydroxy-N-methylpropanamido)methyl)cyclopropyl)piperidin-1-yl)-N,N-dimethylnicotinamide] |
| No IP | 1 | 142 | 49 |  |  |  | CNC(=O)c1ccc(N2CCC3(CC2)CC(CCN(C)C(=O)[C@](O)(c2cccc(OC)c2)C(F)(F)F)C3)nc1Cl [Example 13-2, 2-chloro-N-methyl-6-(2-(2-((R)-3,3,3-trifluoro-2-hydroxy-2-(3-methoxyphenyl)-N-methylpropanamido)ethyl)-7-azaspiro[3.5]nonan-7-yl)nicotinamide] |
|  |  | 77 |  | 677 | 15 | 73 | CN(C)C(=O)c1ccc(N2CCC(CCCN(C)C(=O)C(O)(c3ccccc3)C(F)(F)F)CC2)cc1Cl (single isomer, unassigned) [Example 4-6, 2-chloro-N,N-dimethyl-4-(4-(3-(3,3,3-trifluoro-2-hydroxy-N-methyl-2-phenylpropanamido)propyl)piperidin-1-yl)benzamide] |
| No IP | 17 | 542 | 84 |  |  |  | CN(C)C(=O)c1ccc(N2CCC([C@@H]3C[C@H]3CNC(=O)[C@@](O)(c3ccccc3)C(F)(F)F)CC2)nc1Cl [Example 15-13, 2-chloro-N,N-dimethyl-6-(4-((1S,2R)-2-(((S)-3,3,3-trifluoro-2-hydroxy-2-phenylpropanamido)methyl)cyclopropyl)piperidin-1-yl)nicotinamide] |
| No IP |  | 763 |  |  | 8 | 66 | CN(C)C(=O)c1ccc(N2CCC([C@@H]3C[C@H]3CNC(=O)[C@@](O)(c3ccccc3)C(F)(F)F)CC2)cc1Cl [Example 15-18, 2-chloro-N,N-dimethyl-4-(4-((1S,2R)-2-(((S)-3,3,3-trifluoro-2-hydroxy-2-phenylpropanamido)methyl)cyclopropyl)piperidin-1-yl)benzamide] |
| No IP | 12 | 1550 | 36 |  |  |  | CNC(=O)c1ccc(N2CCC3(CC2)C[C@H]3CCN(C)C(=O)[C@](O)(c2cccc(OC)c2)C(F)(F)F)cc1Cl [Example 7-21, 2-chloro-N-methyl-4-((S)-1-(2-((R)-3,3,3-trifluoro-2-hydroxy-2-(3-methoxyphenyl)-N-methylpropanamido)ethyl)-6-azaspiro[2.5]octan-6-yl)benzamide] |
|  | 43 | 168 | 80 | 2610 |  |  | CN(C)C(=O)c1ccc(N2CCC(CCCN(C)C(=O)C3(C(F)(F)F)CCCO3)CC2)nc1Cl (stereo not shown) [Example 1-56, 2-chloro-N,N-dimethyl-6-(4-(3-(N-methyl-2-(trifluoromethyl)tetrahydrofuran-2-carboxamido)propyl)piperidin-1-yl)nicotinamide] |
